{"source": "patent US20110028561A1", "about": "“PROTECTION OF NEURAL RETINA BY REDUCTION OF ROD METABOLISM” (CHILDREN'S MEDICAL CENTER CORPORATION, priority 2008, published 2011)", "key": {"[1]": {"tested_on": "rats with oxygen-induced retinopathy (OIR)", "experiment": "ERG of rod and rod-mediated neural function in the dark-adapted retina of OIR rats (Example 2)", "assay_type": "in vivo, rat (Sprague-Dawley)", "conditions": "for magnitude of the rod response (Rmp3): p<0.001, most markedly at P30-32, vs vehicle; for recovery from phototransduction, latency to 50% recovery τ: double-flash paradigm", "method": "(§1) Retinopathy was induced in Sprague-Dawley pups (N=46) by exposing them to alternating 24 hour periods of 50±1% and 10±1% oxygen from the day of birth to postnatal day (P) 14 as shown in FIG. 1. The light cycle was controlled at 12 hours 10-30 lux and 12 hours dark, except during test days when constant darkness was maintained. The light-to-dark transition was timed to coincide with each oxygen alternation. For two weeks, beginning on P7, during this transition, the first and fourth litters were injected intraperitoneally with 6 mg*kg-1 Ret-NH2; the second and third litters were administered an equivalent volume of vehicle (20% dimethyl sulfoxide, DMSO) alone. The injection schedule was designed to continue over the age range that begins with the onset of rapid increase in the rhodopsin content of the retina and lasts until rhodopsin content exceeds 50% of its adult amount (A. B. Fulton, and B. N. Baker, Invest Ophthalmol Vis Sci (1984) 25:647). […] The rats were assessed following a longitudinal design with tests at P20-22, P30-32, and P60-62. These dates were selected because they capture the height of vascular abnormality, a period of marked recovery, and an adult age, respectively (J. D. Akula, et al., Invest Ophthalmol Vis Sci (2007) 48:4351). At each test age, we studied the function of the neural retina and the morphology of the retinal vasculature using noninvasive techniques.\nShortly (0-2 days) after the final dose, the effects of the drug were assessed on the neural retina by electroretinography (ERG). The timing and intensity of the stimuli, which was designed to assess rod photoreceptor and rod-mediated post-receptor neural function, were under computer control. Two sets of experiments were performed. In the first, rod and rod-mediated neural function in the dark-adapted retina were assessed. In the second, the recovery of the rod photoreceptor from a bright, rhodopsin-bleaching stimulus was assessed. Each set of experiments was performed on approximately half of the subjects from each litter.\nSample traces were recorded these from a P30-32 VCM-treated rat; the sample records in panels D, E, and G were recorded in the same session. Characteristics of the rod photo-response were estimated from the ERG by fitting the Hood and Birch (D. C. Hood, and D. G. Birch, Vis Neurosci (1992) 8:107) formulation of the Lamb and Pugh (T. D. Lamb, and E. N. Pugh, Jr., J Physiol (1992) 449:719; E. N. Pugh, Jr., and T. D. Lamb, Biochim Biophys Acta (1993) 1141:111) model of the biochemical processes involved in the activation of photo-transduction to the a-wave:\nP3(i,t)=Rmp3·(1−exp(−½·i·S·(t−td)^2))\nIn this equation, i is the intensity of the flash (R*) and t is elapsed time (seconds). The free parameters in the model, Rmp3, S, and td, were ensemble fitted using a square error minimization routine. Rmp3 is the amplitude (μV) of the saturated rod response; it is proportional to the magnitude of the dark current and depends upon the number of channels available for closure by light in the ROS (T. D. Lamb, and E. N. Pugh, Jr., J Physiol (1992) 449:719; E. N. Pugh, Jr., and T. D. Lamb, Biochim Biophys Acta (1993) 1141:111). S is a sensitivity (R*-1*sec-2) parameter that is related to the amplification constant, A, which summarizes the kinetics of the series of processes initiated by the photoisomerization of rhodopsin and resulting in closure of the channels in the plasma membrane of the photoreceptor. td is a brief delay (sec). Fitting of the model was restricted to the leading edge of the a-wave.\nFollowing the study of the activation of phototransduction, deactivation of phototransduction was studied in the same rats using a double-flash paradigm. The time course of the rod response was derived to a green conditioning flash (CF) producing approximately 75 R*. This green flash, while producing an a-wave less than half of the saturated rod response, was nevertheless sufficient to fully suppress the dark current. […]"}, "[2]": {"tested_on": "rats with oxygen-induced retinopathy (OIR)", "experiment": "Arteriolar tortuosity from fundus images analysed with RISA in OIR rats (Example 2)", "assay_type": "in vivo, rat (Sprague-Dawley)", "method": "as §1\nTo assess whether VCM treatment affected the retinal vasculature, wide-field images of the ocular fundus were obtained that show the major vessels of the retina following each ERG session. […] The arterioles were analyzed with RISA (R. Gelman, M. E. Invest Ophthalmol Vis Sci (2005) 46: 4734) custom image analysis software. In agreement with previous reports (J. D. Akula, Invest Ophthalmol Vis Sci (2007) 48:4351; K. Liu, et al., Invest Ophthalmol Vis Sci (2006) 47:2639), the venules were little affected by the induction of retinopathy. […] For each rat, the mean blood vessel integrated curvature across both eyes (median 10 arterioles) was determined to provide a measure of arteriolar tortuosity, TA (radians*pixel^−1), a measure which agrees well with subjective assessments in human subjects (R. Gelman, M. E. Invest Ophthalmol Vis Sci (2005) 46: 4734). […] To test this, the value of TA at P20 was subtracted from the value of TA at P60 in each rat to determine the change in arteriolar tortuosity during the course of the experiment."}, "[3]": {"tested_on": "visual cycle", "conditions": "mouse, dose 6 mg/kg; cited from earlier work"}, "[4]": {"tested_on": "rats with oxygen-induced retinopathy (OIR)", "experiment": "Electroretinography in rats with oxygen-induced retinopathy (Example 1)", "assay_type": "in vivo, rat (Sprague-Dawley)", "description": "Rats with oxygen-induced retinopathy (OIR) are a common model of human retinopathy of prematurity (ROP). Both OIR and ROP are characterized by abnormal retinal vasculature and by lasting dysfunction of the neural retina. Recent findings in OIR rats imply a causal role for the rods in the ROP disease process. However, experimental manipulation of rod function is necessary to establish this role conclusively. The retinoid composition N-Retinylacetamide (all trans), of chemical composition C22H33NO “the drug” was administered in the rat OIR model of ROP.\nOIR was induced in four litters of Sprague-Dawley pups (N=24) by exposure to alternating periods of 50% and 10% oxygen from the day of birth (P0) to P14. The light cycle was 12 hr light (10-30 lux) and 12 hr dark; the light-to-dark transition coincided with each oxygen alternation. For 15 days beginning P7, within one hour of this transition, the first and fourth litters were administered 6 mg/kg drug IP; the second and third litters received only vehicle. At P20-22, when marked retinal vascular abnormality is generally observed, electroretinograms were recorded and receptor and post-receptor function evaluated. Treatment effects were evaluated by ANOVA."}, "[5]": {"tested_on": "rats with oxygen-induced retinopathy (OIR)", "experiment": "Recovery of the rod dark current from a rhodopsin-bleaching stimulus in OIR rats (Example 2)", "assay_type": "in vivo, rat (Sprague-Dawley)", "conditions": "30 second bleaching exposure, 6 mg/kg IP, vs vehicle, t50 often extrapolated", "method": "Retinopathy was induced in Sprague-Dawley pups (N=46) by exposing them to alternating 24 hour periods of 50±1% and 10±1% oxygen from the day of birth to postnatal day (P) 14 as shown in FIG. 1. The light cycle was controlled at 12 hours 10-30 lux and 12 hours dark, except during test days when constant darkness was maintained. The light-to-dark transition was timed to coincide with each oxygen alternation. For two weeks, beginning on P7, during this transition, the first and fourth litters were injected intraperitoneally with 6 mg*kg-1 Ret-NH2; the second and third litters were administered an equivalent volume of vehicle (20% dimethyl sulfoxide, DMSO) alone. […] The rats were assessed following a longitudinal design with tests at P20-22, P30-32, and P60-62. […]\nShortly (0-2 days) after the final dose, the effects of the drug were assessed on the neural retina by electroretinography (ERG). […] In the first, rod and rod-mediated neural function in the dark-adapted retina were assessed. In the second, the recovery of the rod photoreceptor from a bright, rhodopsin-bleaching stimulus was assessed. […]\nIn the second set of experiments, performed on cohorts (n=22), the recovery of the dark current was assessed from a 30 second light exposure estimated to bleach […] of rhodopsin. […] Following the bleaching exposure, the response to the PF was assessed at two minute intervals for 40-50 minutes. […]"}, "[6]": {"conditions": "OIR rats, 6 mg/kg IP for 15 days from P7, ERG at P20-22, vs vehicle"}}, "note": "Entries after “also recorded” stand apart in the source; their conditions may differ.", "data": [{"smiles": "CC(=O)NC/C=C(C)/C=C/C=C(C)/C=C/C1=C(C)CCCC1(C)C", "note": "[N-Retinylacetamide, N-Retinylacetamide (all trans)]", "values": [{"measurement": "unfavorable effects of rod function", "setting": "[1]; 6 mg/kg IP", "result": "No unfavorable effects"}, {"measurement": "rod response sensitivity (S)", "setting": "[1]; 6 mg/kg IP two weeks from P7, tests P20-22, P30-32, P60-62, ANOVA vs vehicle, listed as VCM, 6 mg/kg", "result": "no statistically significant effect; also recorded: not significant, but did trend lower at every age"}, {"measurement": "magnitude of the rod response (Rmp3)", "setting": "[1]; 6 mg/kg IP, listed as Ret-NH2, 6 mg/kg", "result": "larger"}, {"measurement": "magnitude of the rod response (Rmp3)", "setting": "[1]; 6 mg/kg IP, listed as VCM, 6 mg/kg", "result": "significantly increased"}, {"measurement": "post-receptor sensitivity (log σ)", "setting": "[1]; ERG b-wave, Naka-Rushton fit, 6 mg/kg IP, vs vehicle", "result": "not affected"}, {"measurement": "saturated amplitude of the b-wave (Vm)", "setting": "[1]; ERG b-wave, Naka-Rushton fit, 6 mg/kg IP, vs vehicle, listed as Ret-NH2, 6 mg/kg", "result": "larger"}, {"measurement": "saturated amplitude of the b-wave (Vm)", "setting": "[1]; ERG b-wave, Naka-Rushton fit, 6 mg/kg IP, vs vehicle, listed as VCM, 6 mg/kg", "result": "significantly (p<0.01) increased"}, {"measurement": "rod-mediated retinal function (photoreceptor and post-receptor neurons)", "setting": "[1]; P20-22 and P30-32", "result": "improved at the earliest test age (P20-22), and even more markedly improved at the second (P30-32)"}, {"measurement": "recovery from phototransduction, latency to 50% recovery τ", "setting": "[1]; 6 mg/kg IP, vs vehicle, listed as Ret-NH2, 6 mg/kg", "result": "faster recovery"}, {"measurement": "recovery from phototransduction, latency to 50% recovery τ", "setting": "[1]; 6 mg/kg IP, vs vehicle, listed as VCM, 6 mg/kg", "result": "significantly (p<0.01) faster"}, {"measurement": "effect on rod function", "setting": "[1]; summary of ERG data", "result": "advantageous, if transient, effect"}, {"measurement": "post-receptor function", "setting": "[1]; summary of ERG data", "result": "transient enhancement"}, {"measurement": "arteriolar tortuosity TA, main effect", "setting": "[2]; OIR rats, 6 mg/kg IP, P20-22 to P60-62, vs vehicle", "result": "no main effect"}, {"measurement": "appearance of vascular abnormalities", "setting": "[2]; OIR rats, VCM regimen 6 mg/kg IP", "result": "did not prevent the appearance of vascular abnormalities"}, {"measurement": "change in arteriolar tortuosity ΔP60-P20 (vascular recovery)", "setting": "[2]; TA at P60 minus TA at P20, t-test p=0.001", "result": "more than twice the normal amount"}, {"measurement": "recovery of arteriolar tortuosity TA", "setting": "[2]; group x age interaction p=0.002, VCM vs vehicle treated rats", "result": "recovered more rapidly"}, {"measurement": "suppression of the visual cycle", "setting": "[3]", "result": "approximately 50%"}, {"measurement": "serious, negative alteration of the photoreceptor response", "setting": "[4]; OIR rats after treatment, 6 mg/kg IP", "result": "no evidence of serious, negative alteration"}, {"measurement": "effect on responses originating in the inner retina", "setting": "[4]; OIR rats, 6 mg/kg IP", "result": "favorable effect"}, {"measurement": "amplification constant of phototransduction", "setting": "[4]; [6]", "result": "Neither the maximal rod response nor the amplification constant of phototransduction were significantly changed"}, {"measurement": "maximal rod response", "setting": "[4]; [6]", "result": "Neither the maximal rod response nor the amplification constant of phototransduction were significantly changed"}, {"measurement": "post-receptor sensitivity (log s)", "setting": "[4]; OIR rats, 6 mg/kg IP, P20-22, vs vehicle", "result": "unchanged"}, {"measurement": "OFF response to a 400 ms stimulus", "setting": "[4]; background that suppressed the saturating a-wave by ~90%, drug-treated vs vehicle-treated OIR rats, P20-22", "result": 2, "unit": "×"}, {"measurement": "time-constant of deactivation of phototransduction", "setting": "[4]; double-flash protocol, OIR rats, 6 mg/kg IP, P20-22, vs vehicle", "result": "significantly shorter"}, {"measurement": "maximal scotopic b-wave amplitude", "setting": "[4]; drug-treated vs vehicle-treated OIR rats, 6 mg/kg IP, P20-22", "result": "twice as large"}, {"measurement": "cone-driven response to 20 Hz flicker", "setting": "[4]; same background, drug-treated vs vehicle-treated OIR rats, P20-22", "result": 2, "unit": "×"}, {"measurement": "time to 50% recovery of the saturating rod photo-response after bleach (t50)", "setting": "[5]", "result": "not significantly altered overall"}]}]}
